Data: patent US7666868B2, “N-sulphonylpyrroles and their use as histone deacetylase inhibitors” (4SC AG, priority 2005, dated 2010)

Columns and labels:
[1] = tested on: histone H3 acetylation (lysine 9+14) in HeLa cervical carcinoma cells; assay: Cellular histone H3 acetylation assay; format: cell-based; conditions: Homo sapiens, 24 h incubation with compound, read-out: EC50 (histone H3 acetylating cellular potency)
From the text: To assess the cellular efficacy of an histone deactylase inhibitor in vitro, an assay is set up in black clear-bottom 96-well plates and optimized for use on the Cellomics “ArrayScan II” platform for a quantitative calculation of histone acetylation. The protocol uses a polyclonal rabbit antibody, specifically binding to acetylated lysine 9+14 of human histone H3 on fixed cells with an Alexa Fluor 488 labeled goat ant rabbit-IgG used for counterstaining (modified from Braunger et al. MCR annual conference 2003, Abstract 4556).
5×10^3 HeLa cervical carcinoma cells/well (ATCC CCL-2) in 200 μl Dulbecco's modified Eagle's medium (DMEM) containing 10% fetal calf serum are seeded at day 1 in Packard view plates and incubated for 24 h under standard cell culture conditions. On day 2, 2 μl test compound (100× final concentration) is added and incubation continued for further 24 h. On day 3, the culture medium is discarded and attached cells fixed for 15 min at room temperature by addition of 100 μl fixation buffer (3.7% v:v formaldehyde in phosphate buffered saline/PBS). After discarding the fixation buffer and one wash with PBS, cells are permeabilized at room temperature by addition of 100 μl/well permeabilization buffer (30.8 mM NaCl, 0.54 mM Na2HPO4, 0.31 mM KH2PO4, 5% v:v Triton X-100) for 15 min at room temperature. After discarding the permeabilization buffer and washing twice with 100 μl/well blocking solution (PBS with 0.05% v:v Tween 20 and 5% w:v milk powder) at room temperature, the 1st antibody (anti-K9+14 histone H3 antibody, Calbiochem No. 382158) in blocking solution (50 μl/well) is added. After incubation for 1 h at 37° C., the wells are washed twice at room temperature with 100 μl/well blocking solution before addition of the 2nd antibody (goat-anti-rabbit Alexa Fluor 488; MoBiTec No. A-11008) in blocking solution (50 μl/well). After further incubation for 1 h at 37° C., wells are washed twice with 100 μl/well blocking solution room temperature. Finally, 100 d/well PBS are added and image analysis performed on the Cellomics “ArrayScan II” platform. For calculation of EC50 values, the nuclear fluorescence in cells treated with and without a reference HDAC inhibitor (eg NVP-LBH-589) are taken as a positive and negative control. For EC50 determination, the percentage of positive cells is determined and EC50 calculation done from concentration-effect curves by means of non-linear regression.

[2] = tested on: HeLa cervical carcinoma cell line; assay: Cellular cytotoxicity assay (Alamar Blue / Resazurin); format: cell-based; conditions: Homo sapiens; HeLa cells, 48 hours incubation; read-out: IC50 (anti-proliferative/cytotoxic potency)
In short: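 HeLa cells seeded at 3000 per well and treated 24 h later with semi-log compound dilutions in quadruplicate for 48 h at 37 °C, 5% CO2. Resazurin added for 4 h, fluorescence read at 544/590 nm. Viability was relative to untreated cells, and IC50 came from non-linear regression.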

| melting point [°C] | EC50 [1] [nM] | Compound | IC50 [2] [nM] |
| --- | --- | --- | --- |
| 193 to 197 | – | Cn1cc(-c2cccc(S(=O)(=O)n3ccc(/C=C/C(=O)Nc4ccccc4N)c3)c2)cn1 [Compound 15, (E)-N-(2-Amino-phenyl)-3-{1-[3-(1-methyl-1H-pyrazol-4-yl)-benzenesulfonyl]-1H-pyrrol-3-yl}-acrylamide] | – |
| 196 to 201 | – | Nc1ccccc1NC(=O)/C=C/c1ccn(S(=O)(=O)C2(CN3CCOCC3)C=CC(c3ccccc3)=CC2)c1 (stereo not shown) [Compound 107, (E)-N-(2-Amino-phenyl)-3-[1-(4-morpholin-4-ylmethyl-biphenyl-4-sulfonyl)-1H-pyrrol-3-yl]-acrylamide] | – |
| 118 to 119 | 27 to 4400 | O=C(/C=C/c1ccn(S(=O)(=O)c2cc(-c3ccccc3)ccc2CNC2CC2)c1)NO [Compound 63, (E)-3-[1-(4-Cyclopropylaminomethyl-biphenyl-3-sulfonyl)-1H-pyrrol-3-yl]-N-hydroxy-acrylamide] | – |
| 215 to 217 | 27 to 4400 | O=C(/C=C/c1ccn(S(=O)(=O)c2cc(-c3ccccc3)ccc2CCCN2CCOCC2)c1)NO [Compound 45, (E)-N-Hydroxy-3-{1-[4-(3-morpholin-4-yl-propyl)-biphenyl-3-sulfonyl]-1H-pyrrol-3-yl}-acrylamide] | – |
| – | 280 to 5300 | Cn1ccc2cc(-c3ccc(S(=O)(=O)n4ccc(/C=C/C(=O)NO)c4)cc3)ccc21 [Compound 1, (E)-N-Hydroxy-3-{1-[4-(1-methyl-1H-indol-5-yl)-benzenesulfonyl]-1H-pyrrol-3-yl}-acrylamide] | 78 to 2300 |
| 167 to 172 | 27 to 4400 | O=C(/C=C/c1ccn(S(=O)(=O)c2cc(-c3ccccc3)ccc2OCCCN2CCOCC2)c1)NO [Compound 38, (E)-N-Hydroxy-3-{1-[4-(3-morpholin-4-yl-propoxy)-biphenyl-3-sulfonyl]-1H-pyrrol-3-yl}-acrylamide] | – |
| – | 280 to 5300 | Cn1cc(-c2ccc(S(=O)(=O)n3ccc(/C=C/C(=O)NO)c3)cc2)cn1 [Compound 2, (E)-N-Hydroxy-3-{1-[4-(1-methyl-1H-pyrazol-4-yl)-benzenesulfonyl]-1H-pyrrol-3-yl}-acrylamide] | 78 to 2300 |

The next lines start with the molecule.

| Compound | melting point [°C] | EC50 [1] [nM] | IC50 [2] [nM] |
| --- | --- | --- | --- |
| Cc1ccc(S(=O)(=O)NC2(S(=O)(=O)n3ccc(/C=C/C(=O)NO)c3)C=CC(c3ccccc3)=CC2)cc1 (stereo not shown) [Compound 29, (E)-N-Hydroxy-3-{1-[4-(toluene-4-sulfonylamino)-biphenyl-4-sulfonyl]-1H-pyrrol-3-yl}-acrylamide] | 119 to 126 | – | – |
| CN(C)CC1(S(=O)(=O)n2ccc(/C=C/C(=O)Nc3ccccc3N)c2)C=CC(c2ccccc2)=CC1 (stereo not shown) [Compound 47, (E)-N-(2-Amino-phenyl)-3-[1-(4-dimethylaminomethyl-biphenyl-4-sulfonyl)-1H-pyrrol-3-yl]-acrylamide] | 211 to 216 | – | – |
| Nc1ccc(-c2ccc(S(=O)(=O)n3ccc(C=CC(=O)NO)c3)cc2)cn1 [Compound 4, (E)-3-∴1-[4-(6-Amino-pyridin-3-yl)-benzenesulfonyl]-1H-pyrrol-3-yl)-N-hydroxy-acrylamide] | – | 280 to 5300 | 78 to 2300 |
| COc1ccc(-c2ccc(S(=O)(=O)n3ccc(/C=C/C(=O)NO)c3)cc2)cn1 [Compound 3, (E)-N-Hydroxy-3-{1-[4-(6-methoxy-pyridin-3-yl)-benzenesulfonyl]-1H-pyrrol-3-yl}-acrylamide] | – | 280 to 5300 | 78 to 2300 |
| NCC1(S(=O)(=O)n2ccc(/C=C/C(=O)Nc3ccccc3N)c2)C=CC(c2ccccc2)=CC1 (stereo not shown) [Compound 93, (E)-3-[1-(4-Aminomethyl-biphenyl-4-sulfonyl)-1H-pyrrol-3-yl]-N-(2-amino-phenyl)-acrylamide] | 278 to 280 | – | – |
